# Assay results reported in PMC9268591, “Anti-Inflammatory, Analgesic and Antioxidant Potential of New (2S,3S)-2-(4-isopropylbenzyl)-2-methyl-4-nitro-3-phenylbutanals and Their Corresponding Carboxylic Acids through In Vitro, In Silico and In Vivo Studies” (Molecules, 2022).
# Key:
# 5-LOX = target: T1, 5-LOX (Homo sapiens, UniProt P09917); test: 5-Lipoxygenase (5-LOX) inhibition assay; format: biochemical; details: read-out: 5LOX IC50 ± SEM
# T1 construct: purchased Sigma Aldrich Germany 437996
# T1 sequence (P09917 1-674): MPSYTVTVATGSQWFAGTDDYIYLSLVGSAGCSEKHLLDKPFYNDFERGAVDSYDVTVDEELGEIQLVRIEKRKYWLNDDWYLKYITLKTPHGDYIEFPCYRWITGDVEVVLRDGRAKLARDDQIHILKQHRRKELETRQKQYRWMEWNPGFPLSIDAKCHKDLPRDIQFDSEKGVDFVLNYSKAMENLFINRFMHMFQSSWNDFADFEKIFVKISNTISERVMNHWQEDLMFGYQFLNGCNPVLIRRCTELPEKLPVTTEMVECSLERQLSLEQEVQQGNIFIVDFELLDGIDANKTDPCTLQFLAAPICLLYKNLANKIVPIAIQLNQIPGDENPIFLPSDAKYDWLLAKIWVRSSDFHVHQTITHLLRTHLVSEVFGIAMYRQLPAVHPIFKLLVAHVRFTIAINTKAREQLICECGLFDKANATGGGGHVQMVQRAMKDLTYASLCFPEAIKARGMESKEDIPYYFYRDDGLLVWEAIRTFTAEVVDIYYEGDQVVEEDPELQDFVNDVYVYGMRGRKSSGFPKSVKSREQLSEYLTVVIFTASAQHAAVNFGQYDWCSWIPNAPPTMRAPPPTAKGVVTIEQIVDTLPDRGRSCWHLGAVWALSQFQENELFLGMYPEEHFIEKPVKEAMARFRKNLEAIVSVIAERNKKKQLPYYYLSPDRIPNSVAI
# Protocol: The lipoxygenase inhibition assay on the synthesized compounds was carried out as per the standard reported method. […] The 5-LOX enzyme solution was also prepared at a strength of 10,000 units/mL. The linoleic acid (80 mM) was employed as a substrate in lipoxygenase assay. The buffer (phosphate) was also prepared for the assay having 50 mM strength and a pH of 6.3. The samples of synthesized compounds (250 µL), phosphate buffer (250 µL) and mixture of the enzyme were mixed and incubated for five minutes. Afterwards, the solution of the substrate (0.6 mM, 1000 µL) was mixed with lipoxygenase enzyme mixture with shaking. […] The percent inhibition was calculated as per the standard method. […]
# 91- 7, GmbH USA). these all were purchased from Sigma Aldrich Germany. Buffer solution
# containing (KH2PO4 & K2HPO4), was of best quality with high purity. […]
# COX-2 = target: T2, COX-2 (Homo sapiens, UniProt P35354); test: Cyclooxygenase (COX-2) inhibition assay; format: biochemical; details: for SI (calculated selectivity index): COX-2 selectivity over COX-1; for IC50: read-out: IC50 ± SEM COX-2
# T2 construct: purchased Sigma Aldrich Germany C0858
# T2 sequence (P35354 18-604): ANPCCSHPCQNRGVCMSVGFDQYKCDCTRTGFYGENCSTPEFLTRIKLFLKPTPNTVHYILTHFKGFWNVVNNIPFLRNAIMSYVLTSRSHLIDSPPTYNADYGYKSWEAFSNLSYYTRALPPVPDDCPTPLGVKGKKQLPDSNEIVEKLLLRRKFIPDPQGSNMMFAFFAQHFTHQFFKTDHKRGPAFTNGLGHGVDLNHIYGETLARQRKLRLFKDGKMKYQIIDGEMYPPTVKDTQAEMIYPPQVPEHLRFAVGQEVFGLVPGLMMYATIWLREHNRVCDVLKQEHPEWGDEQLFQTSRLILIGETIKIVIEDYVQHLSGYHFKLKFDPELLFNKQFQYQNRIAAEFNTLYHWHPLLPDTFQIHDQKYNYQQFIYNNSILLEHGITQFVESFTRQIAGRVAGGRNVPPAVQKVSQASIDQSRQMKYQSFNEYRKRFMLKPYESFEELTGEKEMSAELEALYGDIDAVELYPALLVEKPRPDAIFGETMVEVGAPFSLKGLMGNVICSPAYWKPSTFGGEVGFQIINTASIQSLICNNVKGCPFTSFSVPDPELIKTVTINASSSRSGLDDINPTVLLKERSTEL
# Protocol: (§1) The COX-1 and 2 enzymes’ inhibitions assays on the synthesized compounds were carried out as per the standard reported method. Initially, the respective enzyme solution was prepared in a concentration of 300 units/mL. The enzyme activation was started with keeping 10 µL of enzyme solution in the cold for up to 10 min. To this enzyme solution was added the substrate solution in HCl (0.1 M Trish buffer with pH of 8.0). The co-factor 50 µL solution contained TMPD (N,N,N,N-tetramethyl-p-phenylenediamine dihydrochloride, 0.24 mM), hematin (1 mM) and glutathione (0.9 mM). […] The reaction was initiated by adding arachidonic acid (20 µL, 30 mM). The overall solution was incubated for five minutes. Afterwards, the absorbance was recorded on a UV-visible instrument at 570 nm. From the absorbance value of every sample, the percentage inhibition was calculated as per the standard method.
# Cyclooxygenase (COX-2) was acquired from human recombinant (Catalog No:C0858) and […]
# co-factor substances in this study like N, N_, N_-tetramethyl-p-phenylenediamine […]
# 91- 7, GmbH USA). these all were purchased from Sigma Aldrich Germany. Buffer solution containing (KH2PO4 & K2HPO4), was of best quality with high purity. […]
# was purchased from Pfizer Pharmaceutical and Libra (Pvt.) limited . Tramadol, Diclofenac was purchased from Alliance Pharmaceutical Pakistan.
# COX-1 = COX-1 (Homo sapiens, UniProt P23219); test: Cyclooxygenase (COX-1) inhibition assay; format: biochemical; details: read-out: IC50 ± SEM COX-1
# Protocol: as §1
# [1] = ABTS free radical scavenging assay
# Protocol: The total antioxidant activity of test compound (HBH) was estimated using the 2, 2-azinobis [3-ethylbenzthiazoline]-6-sulfonic acid (ABTS). The 100 mL of ABTS solution (7 mM) was added to 100 mL of potassium persulfate ([…], 2.45 mM) solution, mixed, and kept in the dark for 12 h to generate free radicals. […]. Gallic acid at 2 mg/2 mL of water was used as a standard drug. Likewise, for the test sample, different concentrations (1000–62.5 μg/mL) of the […] were made for absorbance measurements at the same wavelength. The 300 μL of each test solution was added to 3 mL of ABTS solution to measure the absorbance at 745 nm through a UV-visible spectrophotometer. A similar volume of each standard solution was taken to determine the absorbance at the same wavelength. The ABTS percent scavenging potential was calculated via the above formula [45].
# [2] = DPPH free radical scavenging assay
# Protocol: The protocol of Brand-Williams et al. was used for the DPPH assay with some modifications. DPPH (4 mg) was dissolved in methanol (100 mL) to obtain a mixture of […] 1,1-diphenyl,2-picrylhydrazyl (DPPH). The stock solution of the various synthesized compounds was prepared in methanol with 1 mg/mL concentration. This stock solution was used to prepare different concentrations of test samples ranging within 1000–62.5 μg/mL. The 0.1 mL of each concentration (1000–62.5 μg/mL) was combined with the DPPH (3 mL) solution in methanol. The solution was kept at 23 °C for 15 min incubation, followed by the absorbance measurement deliberated at 517 nm. Gallic acid was used as a standard drug in this assay. The percentage DPPH radical scavenging potential was measured via the formula [44]: % radical scavenging potential=CAbs.−SAbs./CAbs.×100 where CAbs. is the absorbance of the control, and SAbs is the absorbance of test samples/standard.
# albino mice [3] = test: Acute toxicity; format: in vivo; details: highest dose 2000 mg/kg
# From the text: Before testing our selected compounds for in vivo experiments, we performed the toxicity test as per the protocol. Four groups of animals were labelled, with eight animals in each group. The control group was given normal saline, while other groups were given different concentrations of the selected compounds.
# albino mice [4] = test: Acetic acid induced writhing test; format: in vivo, Swiss albino mice; details: standard drug 10 mg/kg
# Protocol: The acetic induced analgesic assay on the compounds FM10 and FM12 was performed to determine the role of the peripheral pathway. The albino mice of both sexes were divided into two groups. Compounds FM10 and FM12 were administered to both the groups in doses of 25 and 50 mg/kg. After 1 h, acetic acid was injected intraperitoneally in the strength of 10 mL/kg. The negative control was Tween 80 1% solution in the strength of 10 mL/kg. […] The activities in animals were determined from the number of stretchings and writings.
# albino mice [5] = test: Carrageenan-induced inflammation; format: in vivo, Swiss albino mice; details: standard aspirin (100 mg/kg in method)
# Protocol: After the acute toxicity studies, the carrageenan-induced inflammation assay was performed on the compounds having a safety profile within limit. Forty (40) albino mice of both sexes were alienated into five different groups, with eight mice in each group. Group I was tagged as the negative control group and was administered dimethylsulfoxide (10 mL/kg, 10% v/v) and phosphate buffer (150 µL). Group II was tagged as the standard/positive control group and received a dose of aspirin (100 mg/kg in 0.9% normal saline). The remaining groups (III, IV and V) were tagged as experimental groups and received synthesized compounds (25, 50 and 100 mg/kg in DMSO) and Tween-80 in normal saline. After half an hour, carrageenan suspension (0.05 mL, 1% w/v in saline) was injected into the animals. After the injection of the irritant/carrageenan, the inflammation in the paws was measured by a plethysmometer in intervals (1 to 5 h). The inflammation in the paws of animals in different groups was compared with that of the vehicle, and the percent anti-inflammatory activities were recorded as per the standard method.
# COX-1, sequence (P23219 24-599): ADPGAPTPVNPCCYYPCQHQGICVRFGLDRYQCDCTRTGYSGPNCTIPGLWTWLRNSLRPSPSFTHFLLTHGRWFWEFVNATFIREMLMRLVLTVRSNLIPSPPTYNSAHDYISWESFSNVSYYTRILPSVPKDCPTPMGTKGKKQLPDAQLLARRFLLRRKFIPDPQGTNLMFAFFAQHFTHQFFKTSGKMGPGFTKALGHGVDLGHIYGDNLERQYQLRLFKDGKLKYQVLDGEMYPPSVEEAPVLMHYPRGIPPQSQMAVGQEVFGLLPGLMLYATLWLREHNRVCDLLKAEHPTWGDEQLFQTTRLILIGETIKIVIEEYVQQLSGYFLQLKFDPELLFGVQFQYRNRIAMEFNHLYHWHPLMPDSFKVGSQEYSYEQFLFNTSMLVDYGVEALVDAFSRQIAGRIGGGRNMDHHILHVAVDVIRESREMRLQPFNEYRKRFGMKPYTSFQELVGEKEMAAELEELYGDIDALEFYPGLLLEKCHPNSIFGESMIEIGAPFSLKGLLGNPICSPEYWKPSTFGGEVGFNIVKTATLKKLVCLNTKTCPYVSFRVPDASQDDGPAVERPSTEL
Compound,IC50 (5-LOX) [µM],melting point [°C],SI (calculated selectivity index) (COX-2),IC50 (COX-2) [µM],IC50 (COX-1) [µM],IC50 [1] [µM],IC50 [2] [µM],Acute toxicity observation (albino mice [3]),Mean inhibition of writhes (albino mice [4]) [%],"Anti-inflammatory activity, carrageenan assay (albino mice [5]; first hour) [%]","Anti-inflammatory activity, carrageenan assay (albino mice [5]; fourth hour) [%]"
"CC(C)c1ccc(C[C@](C)(C=O)[C@@H](C[N+](=O)[O-])c2ccccc2)cc1 (mixture of isomers) [FM1, (2S,3S)-2-(4-isopropylbenzyl)-2-methyl-4-nitro-3-phenylbutanal]",1.81 ± 0.11,149 to 151,12.2,1.21 ± 0.03,14.8 ± 1.19,62.9,54.4,–,–,–,–
"CC(C)c1ccc(C[C@](C)(C=O)[C@@H](C[N+](=O)[O-])c2ccc(Cl)cc2)cc1 (mixture of isomers) [FM2, (2S,3S)-3-(4-chlorophenyl)-2-(4-isopropylbenzyl)-2-methyl-4-nitrobutanal]",0.64 ± 0.01,173 to 175,15.1,2.51 ± 0.24,38 ± 1.65,42,55.4,–,–,–,–
"Cc1ccc([C@H](C[N+](=O)[O-])[C@@](C)(C=O)Cc2ccc(C(C)C)cc2)cc1 (mixture of isomers) [FM3, (2S,3S)-2-(4-isopropylbenzyl)-2-methyl-4-nitro-3-(p-tolyl)butanal]",9.69 ± 0.99,135 to 137,3.6,3.53 ± 0.18,12.8 ± 1.08,11.5,15.1,–,–,–,–
"COc1ccc([C@H](C[N+](=O)[O-])[C@@](C)(C=O)Cc2ccc(C(C)C)cc2)cc1 (mixture of isomers) [FM4, (2S,3S)-2-(4-isopropylbenzyl)-3-(4-methoxyphenyl)-2-methyl-4-nitrobutanal]",0.98 ± 0.12,–,42.8,0.74 ± 0.03,31.7 ± 1.37,25.8,21.1,very mild seizures and disturbances in breath (temporary),–,–,–
"COc1ccccc1[C@H](C[N+](=O)[O-])[C@@](C)(C=O)Cc1ccc(C(C)C)cc1 (mixture of isomers) [FM5, (2S,3S)-2-(4-isopropylbenzyl)-3-(2-methoxyphenyl)-2-methyl-4-nitrobutanal]",16.3 ± 1.02,129 to 131,7.2,8.15 ± 0.98,58.4 ± 2.08,191,184,–,–,–,–
"CC(C)c1ccc(C[C@](C)(C=O)[C@@H](C[N+](=O)[O-])c2ccco2)cc1 (mixture of isomers) [FM6, (2S,3S)-3-(furan-2-yl)-2-(4-isopropylbenzyl)-2-methyl-4-nitrobutanal]",6.17 ± 0.23,161 to 163,11.6,4.72 ± 0.08,54.8 ± 1.95,37.7,49.7,–,–,–,–
"CC(C)c1ccc(C[C@](C)(C(=O)O)[C@@H](C[N+](=O)[O-])c2ccccc2)cc1 [FM7, (2S,3S)-2-(4-isopropylbenzyl)-2-methyl-4-nitro-3-phenylbutanoic Acid]",0.73 ± 0.05,243 to 245,23.2,1.09 ± 0.01,25.3 ± 1.22,24.7,22.5,–,–,–,–
"CC(=O)Oc1ccccc1C(=O)O [aspirin, acetylsalicylic acid]",–,–,–,–,–,–,–,–,73.01,52.77,61.43
